Laboratory results as given in PMC6151435, “Bioactivity In Vitro of Quercetin Glycoside Obtained in Beauveria bassiana Culture and Its Interaction with Liposome Membranes” (Molecules : A Journal of Synthetic Chemistry and Natural …, 2017).

What was measured:
[1] = 1H-NMR study of interaction with DPPC liposomes (PrCl3 shift reagent); settings: 0.24 mM compound
Experimental: The ^1H-NMR method of investigating the Q 7-MeGlu and Q interaction with liposomes was described earlier by Gabrielska et al. with minor modifications. Mixtures of phospholipids (DPPC) with studied compounds were co-dissolved in a chloroform/methanol mixture (55:1 v/v) at the respective concentrations. The lipid concentration in the sample was 36 mM and that of Q 7-MeGlu and Q was 0.24 mM […]. The samples were first evaporated under a stream of nitrogen and then in a vacuum (overnight). Then the samples were hydrated with D2O and vigorously shaken (15 min) at temperature above the main phase transition of lipid (41 °C) until optical homogeneity of the mixture was reached. Next, the lipid suspension was sonicated with a 20 kHz sonicator (20 kHz, Sonic, Italy) to yield a homogeneous lipid dispersion. Briefly, before the measurements a 4 mM praseodymium trichloride (PrCl3 × 6H2O) in heavy water solution […] was added to the sample of 0.6 mL liposome suspension. ^1H-NMR parameters were as follows: spectral window 12.019 Hz, digital resolution 0.183 Hz, acquisition and delay times 2.73 s and 1.00 s, respectively, and acquisition temperature 325 K. The experiment was performed in two replicates.

[2] = system: T1, human serum albumin (HSA); assay: Binding to human serum albumin (fluorescence quenching); settings: for Ksv (Stern–Volmer quenching constant): pH 7.4
T1 construct: purchased Sigma-Aldrich
Excerpt: Fluorescence quenching induced by studied molecules is described using the well-known Stern-Volmer equation [53]:(1) F0/F=1+Kqτ0[Qu]=1+KSV[Qu] where: F0 and F are HSA fluorescence intensities before and after adding quencher, respectively, Kq is a bimolecular quenching constant, τ0 is life time of the fluorophore in the absence of quencher (the fluorescence life time of a biopolymer is about 5 × 10^−9 s, [Qu] is the quencher concentration, and KSV is the Stern–Volmer quenching constant (KSV = Kq × τ0). The plot of F0/F against [Qu] at 310 K is shown in Figure 3A,B. The Stern–Volmer plots are evidently linear in the 1–16 μM range of concentration for studied compounds.
The value of the binding constant Ka is crucial for understanding the distribution of the drug in plasma. A strong binding produces a decrease in plasma concentrations, […] the distribution and the pharmacological effect of the compound [55]. The apparent binding constant (Kb) and number of binding sites (n) can be calculated using the following equation:(2) log(F0−F/F)=logKb+nlog[Qu]
The interaction forces between a drug and a biomacromolecule may include hydrophobic forces, electrostatic interactions, van der Waals interactions, hydrogen bonds, etc. The thermodynamic parameters of binding reaction are the main evidence for confirming a binding force. In order to elucidate the binding mode, the binding constant for flavonoid–HSA complex formation was evaluated at four different temperatures. The thermodynamic parameters of the binding process can be calculated using the Van’t Hoff equation [60]:(3) lnKb=−ΔH/RT+ΔS/R
The enthalpy change ∆H is calculated on the basis of the slope of lnKb vs. […] plot. The free-energy change ΔG is estimated on the basis of the following equation:(4) ΔG=ΔH−TΔS=−RTlnKb where: ΔH ΔG and ΔS are enthalpy, free enthalpy and entropy change, respectively. R is the gas constant 8.314 J·mol^−1·K^−1.
Analysis of Q 7-MeGlu and Q interaction with human serum albumin (HSA) was performed according to the procedure described by Strugała et al.. The fluorescence measurements were performed on a Cary Eclipse fluorimeter equipped with 1.0 cm quartz cells and a thermostat bath. All quenching experiments were performed at 300, 305, 310 and 315 K for HSA in a phosphate buffer solution of pH 7.4 and final concentration 1.5 × 10^−5 M. The excitation wavelength was set at 280 nm (excitation of the Trp and Tyr), and the emission spectra were read at 285–460 nm. The excitation and emission slits were both set to 5 nm. Our method consisted in tracking the quenching of natural HSA fluorescence caused by Q 7-MeGlu and Q (of final concentrations 1, 2, 4, 6, 8, 10, 12, 14 and 16 µM) added successively. The stock solutions of Q 7-MeGlu and Q were prepared by dissolving in methanol. Control sample contained appropriate amount of methanol. […] The experiment was performed in three independent replicates (n = 3).

[3] = Liposome oxidation assay (AAPH-induced oxidation, DPH-PA probe); format: biochemical; settings: for IC50: 30 min oxidation, 37 °C, pH 7.4, read-out: IC50 AAPH PC (inhibition of AAPH induced oxidation of phosphatidylcholine liposomes)
Experimental: Small unilamellar liposomes (SUV) consisted of phosphatidylcholine (egg-PC) were prepared in accordance with the methodology described by Gabrielska and Oszmiański. The lipids were dissolved in chloroform (100 mg/mL), evaporated to dryness under nitrogen and under vacuum for another 60 min. Subsequently, a phosphate buffer […] of pH 7.4 was added and liposomes were formed by mechanical shaking. Then SUVs were formed using a 20 kHz sonicator for 15 min. During sonication the samples were thermostated at 0–2 °C. In the study, PC liposomes at a concentration of 0.1 mg/mL in phosphate buffer (pH 7.4) were used. Liposomes prepared according to the presented-above procedure were used to determine the antioxidative activity and in fluorometric studies.
Antioxidant activities of Q 7-MeGlu and Q were determined using a fluorometric method described earlier by Strugała et al. with minor modifications. The studies were carried out on PC liposomes, which contained the fluorescent probe DPH-PA. Use was made of the relationship between DPH-PA fluorescence intensity and concentration of free radicals. The probe’s fluorescence decreased with its rising oxidation caused by free radicals, supplied by AAPH. Molecules of this compound underwent thermal decomposition into two free radicals each. The value of relative intensity of DPH-PA fluorescence was adopted as a measure of the degree of lipid membrane oxidation. It was calculated as a ratio of fluorescence intensity after 30 min of oxidation in the presence of antioxidants to the initial value of the intensity. The studied polyphenolic compounds scavenged free radicals and thus caused a lower rate of DPH-PA fluorescence decrease. PC liposomes at a concentration of 0.1 mg/mL in phosphate buffer (pH 7.4) were used, incubated for 0.5 h in darkness with addition of DPH-PA probe at a concentration of 1 µM (stock solutions were prepared in DMF). […] The wavelengths of excitation and emission for the probe were as follows: λex = 355 nm, λem = 430 nm. Oxidation was initiated just before measurement, using AAPH at a concentration of […] (dissolved in water) at 37 °C (control sample), or in the presence of test substances (Q 7-MeGlu and Q). The concentrations of studied compounds fluctuated in the range 3–7 µM for Q 7-MeGlu and 2–5 µM for Q. The measurements were conducted with a Cary Eclipse fluorimeter.

KSV compared with KSV for Q [2]	SMILES	decrease (Δδ) in the splitting parameter of polar head groups resonance [1] [%]	decrease in full width at half height (ν) of band of terminal methyl group [1] [%]	increase in the half width of the membrane surface signal vs pure DPPC [1]	increase of the Iout/Iin ratio vs pure DPPC [1] [%]	Ksv (Stern–Volmer quenching constant) ([2]; T 300 K)	Ksv (Stern–Volmer quenching constant) ([2]; T 305 K)	Ksv (Stern–Volmer quenching constant) ([2]; T 310 K)	Ksv (Stern–Volmer quenching constant) ([2]; T 315 K)	IC50 [3] [µM]	decrease of the Iout/Iin ratio vs pure DPPC [1] [%]	antioxidative activity, fold higher than L-(+)-ascorbic acid ([3]; from IC50 values)	antioxidative activity, fold lower than quercetin ([3]; from IC50 values)
–	O=c1c(O)c(-c2ccc(O)c(O)c2)oc2cc(O)cc(O)c12 [Quercetin, 3,3′,4′,5,7-pentahydroxyflavone]	32	4	approximately 119%	33	17.510 ± 0.152 * ·10^4 M^−1	16.719 ± 0.135 * ·10^4 M^−1	15.632 ± 0.109 * ·10^4 M^−1	13.718 ± 0.058 * ·10^4 M^−1	4.49 ± 0.24	–	–	–
approximately four times lower	CO[C@H]1[C@H](O)[C@@H](O)[C@H](Oc2cc(O)c3c(=O)c(O)c(-c4ccc(O)c(O)c4)oc3c2)O[C@@H]1CO [Q 7-MeGlu, quercetin 7-O-β-D-(4″-O-methyl)glucopyranoside]	56	–	~142%	–	3.837 ± 0.192 * ·10^4 M^−1	3.545 ± 0.025 * ·10^4 M^−1	3.412 ± 0.045 * ·10^4 M^−1	3.182 ± 0.013 * ·10^4 M^−1	5.47 ± 0.47	13	ca. 24 fold	ca. 1.2 fold
